The source of these data is patent US20220016079A1, “COMBINATION TREATMENT OF HIV INFECTIONS” (priority 2018, published 2022).

For data set [1], the system named is latent HIV-1 in resting CD4+ T cells. The data set can be described thus: Ex vivo HIV-1 reactivation in human resting CD4+ T cells from ART-treated HIV-1-infected humanized BLT mice (HIV RNA in supernatant). It is filed as cell-based. How it is done: The efficacy of IAPa, ICI or IAPa/ICI combinations in reversing HIV-1 latency was tested in resting CD4+ T cells derived from ART-treated HIV-1-infected humanized BLT mice.
Human resting CD4+ T cells from ten mice were isolated from blood, thymic organoid, lung, spleen, bone marrow, lymph nodes and liver. Isolated human resting CD4+ T cells were pooled, counted, split and treated in duplicate for 48 h with different IAPa (1 μM) or ICI (10 μg/ml) in monotherapy, or the IAPa/ICI combinations. Amounts of virions released from cells were quantified at the indicated time points by quantifying HIV RNA levels (HIV RNA copies/mL) in supernatant of cell culture using one-step reverse transcriptase quantitative real-time PCR (ABI custom TaqMan Assays-by-Design) according to the manufacturer's instructions. Primers were 5-[…]-3 and 5-[…]-3, and MGB probe 5-FAM-[…]-Q-3, where FAM is 6-carboxyfluorescein.
(§1) The experiment was carried out using the same agents as described above for Example 8.1 (with the exception that no birinapant was used).

For data set [2], the system named is primary CD4+ T-lymphocytes. The data set can be described thus: Cellular cytotoxicity (LDH assay and CellTiter Glo assay). It is filed as cell-based, human. As to conditions: even at high concentration (20 μM), 72 h. How it is done: (§2) This experiment examined the cellular cytotoxicity of DEB10-1143 alone and DEB10-1143+ART on the human CD4+ T cell line JLat 10.6. DEB10-1143 was tested as well on human primary CD4+ T lymphocytes. Drug titration and kinetic studies were conducted.
(§3) Method: Cells (100,000 cells/100 μL) were treated in triplicate for 72 h with increasing concentrations of DEB10-1143 (0 to 20 μM) used alone or in combination with ART (20 μM TDF, 10 μM FTC and 1 μM Raltegravir). ART and DEB10-1143 were added simultaneously to cells. Saponin (0.5%) was used as positive control due to its ability to induce cell death.
(§4) Cellular cytotoxicity was analyzed by Lactate dehydrogenase (LDH) assay and CellTiter Glo assay.
(§5) LDH assay: LDH is an oxidoreductase enzyme that catalyses the interconversion of pyruvate and lactate. Cells release LDH into the bloodstream after tissue damage or red blood cell hemolysis. […] In this particular assay, LDH reduces NAD to NADH, which is specifically detected by colorimetric (490 nm) assay.
(§6) CellTiter Glo assay: The CellTiter-Glo® 2.0 Assay determines the number of viable cells in culture by quantifying ATP, which indicates the presence of metabolically active cells. Luminescence readout is directly proportional to the number of viable cells in culture. Data are expressed in luminescence (RLU) in triplicate
(ATP-based viability assays read luminescence as a measure of living cells.)

For data set [3], the system named is CD4+ T cell line JLat 10.6. The data set is described as above. It is filed as cell-based, human. As to conditions: even at high concentration (20 μM), 72 h. How it is done:
as §2, §3, §4, §5, §6

Data set [4] concerns latent HIV in resting CD4+ T-lymphocytes. Put plainly: HIV-1 reactivation in resting CD4+ T cells from PBMCs of three ART-treated HIV patients (HIV RNA in supernatant). It is filed as cell-based, human.
Text: The experiments of this example analyzed the ability of IAPa, ICIs, or IAPa/ICI combinations at reactivating latent HIV in resting CD4+ T-lymphocytes isolated from peripheral blood monocytic cells (PBMCs) derived from HIV patients currently under ART.
Method: Resting CD4+ T cells were isolated from PBMCs of three ART-treated HIV patients by negative selection and magnetic separation (Easysep Mouse/Human Chimera Isolation Kits from […] technologies). Isolated resting CD4+ T cells (50,000 cells/50 μL) were treated in duplicate for 48h with different IAPa (1 μM) or ICI (10 μg/ml) in monotherapy, or the IAPa/ICI combinations. Amounts of virions released from cells were quantified at the indicated time points by quantifying HIV RNA levels (HIV RNA copies/mL) in supernatant of cell culture using one-step reverse transcriptase quantitative real-time PCR (ABI custom TaqMan Assays-by-Design) according to the manufacturer's instructions. Primers were 5-[…]-3 and 5-[…]-3, and MGB probe 5-FAM-[…]-Q-3, where FAM is 6-carboxyfluorescein.
as §1

A further data set concerns HIV-1 (JR-CSF). Put plainly: Efficacy study in HIV-1 infected humanized BLT mice: HIV-1 loads in blood (qPCR). It is filed as in vivo. As to conditions: 4 weeks of treatment starting 12 weeks after infection; n=8 per group. The text has this:
Methods: Humanized BLT mice were generated by implanting human fetal liver and thymus tissues under the kidney capsule of an immunodeficient NOD scid gamma (NSG=NOD.Cg-Prkdc^scidII12rg^tm1Wjl/SzJ) mouse, followed by an administration of autologous human fetal liver CD34+ cells (human hematopoietic stem cells). In BLT mice, T cell education occured in the human thymic tissue, resulting in complete systemic reconstitution of all major human hematopoietic lineages including T, B, monocyte/macrophage, dendritic, and natural killer cells. The extensive systemic and genital mucosal reconstitution with human lymphoid cells rendered female humanized BLT mice susceptible to both vaginal and rectal HIV infection. […]
R5 HIV (JR-CSF) was produced by 293T transfection and quantified by p24 ELISA. Humanized mice were infected with JR-CSF (200 ng of p24) and viral replication quantified weekly by qPCR for up to 16 weeks.
Methods: Thirty-two BLT mice were infected with HIV-1. 12 weeks later mice were split in 4 groups (n=8), treated with various regimen and analyzed for 6 weeks. […] Body weight, HIV-1 loads and PD-1 expression on CD8+ T cells were analyzed once weekly. […] The remaining mice (4×5=20) were sacrificed 2 weeks after treatment completion and viral RNA levels in organ reservoirs (spleen, thymic organoid, lung, spleen, lymph nodes and liver) were quantified by qPCR.
In general terms: Quantitative PCR measures a nucleic acid by following its amplification.

The mark [5] stands for this setting: IAPa 1 μM monotherapy (0.1% DMSO, no ICI), 48 h.
Setting [6] is: IAPa 1 μM with Control IgG1, 48 h.
Setting [7] is: IAPa 1 μM with Control IgG2, 48 h.

The structures appear in SMILES notation.

As to `CN[C@@H](C)C(=O)N[C@H]1CN(C(=O)CC(C)C)CC[C@H]2CC[C@@H](C(=O)NC(c3ccccc3)c3ccccc3)N2C1=O` [Debio 1143, (5S,8S,10aR)-N-benzhydryl-5-((S)-2-(methylamino)propanamido)-3-(3-methylbutanoyl)-6-oxodecahydropyrrolo[1,2-a][1,5]diazocine-8-carboxamide], the “latency reversal class (HIV RNA copies/ml in supernatant)” value in data set [1] (setting [5]) was 2 (Between 2501 and 5000 RNA copies/ml were classified as “2”); in data set [1] (setting [6]), 2 (Between 2501 and 5000 RNA copies/ml were classified as “2”); in data set [1] (setting [7]), 2 (Between 2501 and 5000 RNA copies/ml were classified as “2”); in data set [4] (setting [5]), 1 (Between 501 and 1000 RNA copies/ml were classified as “1”); in data set [4] (setting [6]), 1 (Between 501 and 1000 RNA copies/ml were classified as “1”); in data set [4] (setting [7]), 1 (Between 501 and 1000 RNA copies/ml were classified as “1”). Moreover, the cytotoxicity result in data set [2] and in data set [3] was “no significant cytotoxicity” each time. In addition, in the data set on HIV-1 (JR-CSF), the “HIV titers in blood” value is recorded as “increased viral titers”.
